The values below come from patent US3995059A, “Pharmaceutical compositions containing fatty acid amide derivatives” (Sumitomo Chemical Company, Limited, priority 1966, dated 1976).

A short description of series [1]: Acute oral toxicity, LD50 (Table 2). Particulars: in vivo, mouse, P.O. On the procedure: The extremely low toxicities of the present acid-amide compounds are illustrated in Table 2, in which the acute toxicities of some of the present compounds in mice are listed.
As is seen from Table 2, no fatal case and no significant toxic symptoms were observed even in such large doses (per os) as 0.5 g. per 10 g., namely 50 g./kg. of the body weight. Also, no significant toxic symptoms, or fatal cases, were observed when the amides in amounts of 1, 0.5 or 0.2% in the diet were administered to mice everyday for three weeks. The appetite was normal and digestive functions were unchanged. When the internal organs were inspected by dissection, there was no appreciable change.

The subject of another series is Serum cholesterol. The series can be described thus: Serum cholesterol of rabbits fed a cholesterol rich diet. Type of series: in vivo. Particulars: 200 mg/day with cholesterol rich diet.
The test system of another series is Rabbit serum cholesterol. The series can be described thus: Rabbit serum cholesterol lowering ratio after 9 weeks. Type of series: in vivo. Particulars: 800 mg/kg/day; control 0%.

Molecules are shown by their SMILES.

What is called LD50 is the dose expected to kill half of the subjects tested. Read a low LD50 as a more toxic substance. On to `CCCCC/C=C\C/C=C\CCCCCCCC(=O)NC(Cc1ccccc1)c1ccccc1` (stereo not shown), for which the LD50 in series [1] was more than 50000 mg/kg.
For the molecule `CCCCC/C=C\C/C=C\CCCCCCCC(=O)NC(C)c1ccccc1` (stereo not shown) [drawing 136], the LD50 in series [1] is more than 50000 mg/kg.
Turning to `CCCCC/C=C\C/C=C\CCCCCCCC(=O)NC(C)c1ccc(C)cc1` (stereo not shown) [drawing 138], in series [1], the LD50 is more than 50000 mg/kg.
`CCCCC/C=C\C/C=C\CCCCCCCC(=O)NC12CC3CC(CC(C3)C1)C2` [drawing 140] had an LD50 in series [1] of more than 50000 mg/kg.
Regarding `CC[C@H](CC[C@@H](C)[C@H]1CC[C@H]2[C@@H]3CC=C4C[C@@H](O)CC[C@]4(C)[C@H]3CC[C@]12C)C(C)C` [β-Sitosterol, reference compound], the Serum cholesterol was 250 mg. % with Serum cholesterol (2 weeks, control 250); 438 mg. % with Serum cholesterol (4 weeks, control 563); 875 mg. % with Serum cholesterol (6 weeks, control 890); 1063 mg. % with Serum cholesterol (8 weeks, control 1150); 1200 mg. % in the series with Serum cholesterol (10 weeks, control 1750). Besides, the “Rabbit serum cholesterol Towering ratio (after 9 weeks)” value in the series with Rabbit serum cholesterol was 21.2%.
